PubChem BioAssay (NCI)
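Compound exposure: 48 hours, 5 concentrations, 96-well plates. Abbreviation: GI50, concentration required for 50% inhibition of growth. TGI marks complete inhibition of growth.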

Legend:
Assay in all cases: NCI tumour cell line growth inhibition, 48 h
HOP-92 NSCLC = test system: HOP-92 NSCLC
IGROV1 ovarian = test system: IGROV1 ovarian
LOX IMVI melanoma = test system: LOX IMVI melanoma
SK-OV-3 ovarian = test system: SK-OV-3 ovarian
T-47D breast = test system: T-47D breast
K-562 leukemia = test system: K-562 leukemia
RPMI-8226 leukemia = test system: RPMI-8226 leukemia
OVCAR-8 ovarian = test system: OVCAR-8 ovarian
SNB-19 CNS = test system: SNB-19 CNS
SN12C renal = test system: SN12C renal

Compound | GI50 (HOP-92 NSCLC) | TGI (HOP-92 NSCLC) | GI50 (IGROV1 ovarian) | TGI (IGROV1 ovarian) | GI50 (LOX IMVI melanoma) | TGI (LOX IMVI melanoma) | GI50 (SK-OV-3 ovarian) | TGI (SK-OV-3 ovarian) | GI50 (T-47D breast) | TGI (T-47D breast) | GI50 (K-562 leukemia) | TGI (K-562 leukemia) | GI50 (RPMI-8226 leukemia) | TGI (RPMI-8226 leukemia) | GI50 (OVCAR-8 ovarian) | TGI (OVCAR-8 ovarian) | GI50 (SNB-19 CNS) | TGI (SNB-19 CNS) | GI50 (SN12C renal) | TGI (SN12C renal)
N#CC1=C(N)Oc2c(ccc3ccccc23)C1c1cc2ccccc2n2nnnc12 (centres undefined) | 0.49 µM | 7.47 µM | 0.82 µM | > 100 µM | 0.966 µM | > 100 µM | 2.05 µM | > 100 µM | 1.83 µM | > 100 µM | 0.365 µM | > 100 µM | 0.927 µM | > 100 µM | 2.85 µM | > 100 µM | 0.702 µM | > 100 µM | 0.99 µM | > 100 µM
O=C(CC1(O)C(=O)Nc2c(Cl)cc(Cl)cc21)c1cccc([N+](=O)[O-])c1 (centres undefined) |  | 80.9 µM |  | 55.8 µM |  | 35.5 µM |  | > 100 µM |  | > 100 µM |  | 70.2 µM |  | 58.2 µM |  | > 83.9 µM |  | > 100 µM |  | 58.1 µM
C#CCCCCCC(=O)N[C@H]1C=C[C@@H]2/C=C(C)/C=C/[C@@H](C)[C@H]([C@H](C)[C@H](O)[C@@H](C)NC(C)=O)OC(=O)/C=C/C=C(C)\C=C\[C@]2(C)C1 | < 0.004 µM | 0.0159 µM | 0.00681 µM | > 40 µM | < 0.004 µM | < 0.004 µM | < 0.004 µM | > 40 µM | < 0.004 µM | 13.6 µM | < 0.004 µM | > 40 µM | < 0.004 µM | 4.61 µM | < 0.004 µM | > 40 µM | 0.0247 µM | > 40 µM | < 0.004 µM | > 40 µM
COc1cc(NC(=O)COc2ccccc2)c(C(N)=O)cc1OC | 17.7 µM | 52.5 µM | 4.07 µM | > 100 µM | 1.81 µM | > 100 µM | 3.58 µM | 22.7 µM | 3.46 µM | > 100 µM | 0.31 µM | > 100 µM | 2.27 µM | > 100 µM | 3.01 µM | > 100 µM | 3.31 µM | 51.9 µM | 3.12 µM | > 100 µM
O=C1C[C@@H]2OCC=C3C[N+]4([O-])CC[C@]56c7ccccc7N1[C@H]5[C@H]2[C@H]3C[C@@H]64 (some centres undefined) | > 100 µM | > 100 µM | > 100 µM | > 100 µM | > 100 µM | > 100 µM | > 100 µM | > 100 µM | > 100 µM | > 100 µM | > 100 µM | > 100 µM | > 100 µM | > 100 µM | > 100 µM | > 100 µM | > 100 µM | > 100 µM | > 100 µM | > 100 µM
COc1cc2c3c(n(CCCN)c(=O)c2cc1OC)-c1ccc(N)cc1C3=O | 2.3 µM | 15.3 µM | 1.43 µM | > 50.4 µM | 0.333 µM | 2.16 µM | 2.52 µM | 17.9 µM | 0.842 µM | 7.37 µM | 0.155 µM | 12 µM | 19.5 µM | 49.8 µM | 2.86 µM | 59.1 µM | 1.27 µM | 16.3 µM | 2.98 µM | 27.3 µM
O=C(O)CSc1cc(NS(=O)(=O)c2ccc(Br)cc2)c2ccccc2c1O | 13.5 µM | 31.6 µM | 3.03 µM | 8.76 µM | 3.14 µM | 12.1 µM | 18.7 µM | 33.2 µM | 4.84 µM | 23.1 µM | 19.7 µM | > 59.6 µM | 5.33 µM | 29.9 µM | 3.73 µM | 11 µM | 17.1 µM | 34.2 µM | 2.27 µM | 5.44 µM
CC1(C)CC2=NO[Se]3=C2C(=NO3)C1 |  | 8.21 µM |  | 6.43 µM |  | 9.39 µM |  | 13.1 µM |  | 24.7 µM |  | 12.4 µM |  | 18.5 µM |  | 16.4 µM |  | 15.3 µM |  | 13 µM
CN(c1ccccc1)c1c2ccccc2nc2[nH]c3ccccc3c12 | 1.79 µM | 6.46 µM | 1.79 µM |  | 1.43 µM | 4 µM | 3.75 µM | 14.1 µM | 3.84 µM | 32.6 µM | 2.41 µM | > 56.8 µM | 1.49 µM | 3.92 µM | 2.46 µM | > 29.3 µM | 3.77 µM | 15.5 µM | 1.68 µM | 5.06 µM
OCc1ccc(N2CCc3ccc(F)cc3C2)cc1Cl | 0.146 µM | 0.889 µM | 0.0202 µM | 0.124 µM | 3.73 µM | 12.3 µM | 2.71 µM | 13.6 µM | 0.101 µM | 0.499 µM | 0.159 µM | 19.6 µM | 0.263 µM | 10.7 µM | 7.05 µM | 20.7 µM | 12.4 µM | 27 µM | 8.22 µM | 22.9 µM
Cn1cc(-c2ccc3c(c2)ncn3-c2cc(NS(=O)(=O)C3CC3)cc(-c3ccc(F)cc3F)c2)cn1 | 2.83 µM | 62.4 µM | 3.49 µM | 61.9 µM | 5.75 µM | 42 µM | 10.2 µM | > 100 µM | 7.39 µM | 62.8 µM | 4.31 µM | 72.1 µM | 3.97 µM | 32.2 µM | 15.4 µM | > 100 µM | 9.46 µM | > 100 µM | 2.99 µM | > 100 µM
Cc1ccc(-c2nc([P+](c3ccccc3)(c3ccccc3)c3ccccc3)c(N3CCOCC3)o2)cc1 | 0.3 µM | 2.44 µM | 0.419 µM | 4.11 µM | 0.565 µM | 2.44 µM | 0.381 µM | 4.32 µM | 0.23 µM | 1.83 µM | 0.331 µM | 4.87 µM | 0.251 µM | 1.16 µM | 0.505 µM | 9.5 µM | 0.333 µM | 4.91 µM | 0.335 µM | 4.16 µM
CCCCCCCCCCCCOC1C(C(COC2OC(C(O)CO)C3OC(C)(C)OC23)OC(=O)Nc2ccccc2)OC2OC(C)(C)OC21 (centres undefined) | 7.29 µM | 20.1 µM | 4.94 µM | 15.3 µM | 7.82 µM | 20.9 µM | 15.6 µM | 30 µM | 5.02 µM | 16.6 µM | 3.44 µM | 16.9 µM | 3.93 µM | 15.2 µM | 8.24 µM | 26.2 µM | 7.35 µM | 20.3 µM | 4.89 µM | 16.6 µM
COc1cc(/C=C/C(=O)c2nc3cc(F)ccc3nc2C)cc(OC)c1OC | 2.81 µM | > 100 µM | 11.4 µM | > 100 µM | 2.84 µM | > 22.1 µM | > 100 µM | > 100 µM | 4.91 µM | > 100 µM | 2.01 µM | > 23.9 µM | 0.327 µM | 3.07 µM | 5.38 µM | > 100 µM | > 51.1 µM | > 100 µM | 6.3 µM | > 100 µM
CC1=C(C(=O)Nc2ccc3[nH]ncc3c2)C(c2ccc(F)cc2)N=C(c2ccc(C(F)(F)F)nc2)N1 (centres undefined) | 0.548 µM | 7.6 µM | 5.66 µM | > 25 µM | 8.88 µM | > 25 µM | > 25 µM | > 25 µM | > 20 µM | > 25 µM | 10 µM | > 25 µM | 20 µM | > 25 µM | 20.2 µM | > 25 µM | > 23.6 µM | > 25 µM | > 22.9 µM | > 25 µM
COc1ccc(Cn2c(Br)c3c(c2-c2cc(OC)c(OC)c(OC)c2)CCc2sc(N)nc2-3)cc1 | 0.477 µM | 2.88 µM | 1.28 µM | 9.19 µM | 0.869 µM | 6.14 µM | 1.2 µM | 8.04 µM | 0.626 µM | 21.5 µM | 0.436 µM | > 32.9 µM | 3.16 µM | 32.4 µM | 1.32 µM | 16.9 µM | 3.97 µM | > 100 µM | 2.15 µM | 14.2 µM
